According to patent publication US20170340693A1, “DISLODGEMENT AND RELEASE OF HSC USING ALPHA 9 INTEGRIN ANTAGONIST AND CXCR4 ANTAGONIST” (COMMONWEALTH SCIENTIFIC AND INDUSTRIAL RESEARCH ORGANISATION, priority 2014, published 2017):

Tests used:
[1] = test system: progenitors (LSK) and HSC (LSKSLAM) in peripheral blood; assay: HSC mobilization to peripheral blood in mice; format: in vivo; conditions: single agent, single dose
Procedure: For mobilization experiments, all mice received subcutaneous injections at 100 μl/10 gm body weight and PB was harvested by throat bleed using EDTA coated syringes.
(a) R-BC154 (IXb) and BOP. Mice received a single injection of freshly prepared solutions of R-BC154 (IXb) and BOP in saline at the doses indicated before PB was harvested by throat bleed at the times indicated.
(b) G-CSF. Mice received G-CSF at 250 μg/kg twice daily (500 ug/kg/day), 6-8 hours apart for 4 consecutive days. Groups receiving G-CSF and BOP received the standard G-CSF regime as described above followed by a single injection of BOP 1 h prior to harvest. Control mice received an equal volume of saline.
Mice received subcutaneous injections at 100 μl/10 gm body weight of a single injection of BOP (up to 15 mg/kg) for various timeframes, a single BIO5192 injection at 1 mg/kg for 1 hour, a single AMD3100 injection at 3 mg/kg for 1 hour (mice also receiving BOP or BIO15192 were injected with a single dose of BOP or BIO15192 1 hour prior to harvest), or G-CSF at 250 μg/kg twice daily (500 μg/kg/day), 6-8 hours apart for 4 consecutive days (mice also receiving BOP and/or AMD3100 were injected with a single dose of BOP and/or AMD3100 1 h prior to harvest). Control mice received an equivalent volume of saline or 10% HPβCD/saline where appropriate.

[2] = test system: murine BM progenitors (LSK) and HSC (LSKSLAM); assay: In vitro R-BC154 (IXb) binding to murine central and endosteal BM cells; format: cell-based, mice
From the text: Populations of endosteal and central murine bone marrow cells were isolated as previously described in J. Grassinger, et al Cytokine, 2012, 58, 218-225 and D. N. Haylock et al Stem Cells, 2007, 25, 1062-1069. Briefly, one femur, tibia and iliac bone were excised and cleaned of muscle. After removing the epi- and metaphyseal regions, bones were flushed with PBS-2% FBS to obtain central bone marrow cells. Flushed long bones and epi- and metaphyseal fragments were pooled and crushed using a mortar and pestle. Bone fragments were digested with Collagenase I (3 mg/ml) and Dispase II (4 mg/ml) at 37° C. in an orbital shaker at 750 rpm. After 5 min, bone fragments were washed once with PBS and once with PBS 2% FBS to collect the endosteal bone marrow cells. Peripheral blood was collected by retro-orbital puncture and red blood cells were lysed using NH4Cl lysis buffer for 5 min at room temperature. Isolated cell populations were washed with PBS 2% FBS and then stained for flow cytometry as described in Antibody Cocktails above.
For in vitro labelling experiments, 5×10^6 BM cells from C57 mice, conditional α4^−/−/α9^−/− mice and humanised NODSCIDIL2Rγ^−/− mice and human cord blood MNCs were treated with R-BC154 (IXb) (up to 300 nM) in PBS (0.5% BSA) or TBS (0.5% BSA) containing either 1 mM CaCl2/MgCl2 (activating) or 10 mM EDTA (deactivating) at 40×10^6 cells/ml for 20 mins at 4° C. Cells were washed with cold PBS (2% FBS) and then immunolabelled as described in “Antibody Cocktails” prior to flow cytometric analysis. For in vivo experiments, C57BL/6 mice, α4^−/−/α9^−/− vav-cre mice and humanised NODSCIDIL2Rγ^−/− mice received either intravenous or subcutaneous injections of R-BC154 (IXb) (5-10 mg/kg) at 100 ul/10 gm mouse weight and analysed as described above.
To determine whether integrin activation is required for binding to both central and endosteal BM progenitors (Lin^−Sca-1^+ckit^+ cells; LSK) and HSC (LSKCD150^+CD48^− cells; LSKSLAM) (FIG. 3a), R-BC154 (IXb) binding was assessed in the presence of 1 mM Ca^2+/Mg^2+ (FIG. 3b).

α4β1 or α9β1 LN18 cells = assay: Association and dissociation (off-rate) kinetics in vitro; format: binding, human
Procedure: Eppendorf vials containing α4β1 or α9β1 LN18 cells (0.5×10^6 cells) were treated with 50 nM of R-BC154 (IXb) (100 μl in TBS-2% FBS containing either 1 mM CaCl2—MgCl2 or 1 mM MnCl2 at 37° C. until for 30 min, washed once with the relevant binding buffer and dry pelleted. The cells were treated with 500 nM of an unlabelled competing inhibitor (100 μl, in TBS-2% FBS containing either 1 mM CaCl2—MgCl2 or 1 mM MnCl2) at 37° C. for the times indicated (0, 2.5, 5, 15, 30, 45, 60 min). The cells were diluted with cold TBS-2% FBS (containing the relevant cations), pelleted by centrifugation, washed once and resuspended (˜200 μl) in binding buffer for flow cytometric analysis. Mean channel fluorescence was plotted against time and the data was fitted to either a one-phase or two-phase exponential decay function using GraphPad Prism 6. The off-rate, koff was extrapolated from the curves.
Eppendorf vials containing α4β1 or α9β1 LN18 cells (0.5×10^6 cells) in 50 μl TBS-2% FBS containing either 1 mM CaCl2—MgCl2 or 1 mM MnCl2 were pre-activated in a heating block for 20 min at 37° C. […] Mean channel fluorescence was plotted against time and the data was fitted to either a one-phase or two phase association function using GraphPad Prism 6. The observed on-rate, kobs was extrapolated from the curves and kon was calculated using […]

## CCN(CC)c1ccc2c(-c3ccc(S(=O)(=O)NCc4cn(C5C[C@@H](C(=O)N[C@@H](Cc6ccc(OC(=O)N7CCCC7)cc6)C(=O)O)N(S(=O)(=O)c6ccccc6)C5)nn4)cc3S(=O)(=O)[O-])c3ccc(=[N+](CC)CC)cc-3oc2c1 (some centres unmarked) [R-BC154 (IXb)]
[1]
  increase in PB progenitors (LSK) and HSC (LSKSLAM): moderate increases
[2]; 1 mM Ca2+/Mg2+
  binding to central versus endosteal LSK and LSKSLAM: greater binding to central LSK and LSKSLAM was observed relative to their endosteal counterparts
[2]; BM of α4flox/flox α9flox/flox vav-cre mice
  binding to α4−/−/α9−/− LSK and LSKSLAM cells: essentially absent
[2]; EDTA (deactivating)
  binding to HSC and progenitors on co-treatment with EDTA: completely abolished activity
[2]; absence of both activating cations and EDTA
  binding to endosteal and central LSK: binding to endosteal LSK cells was still evident but not to central LSK
[2]; exogenous activation
  binding to lineage committed lymphoid and myeloid cells relative to LSKSLAM and LSK: significantly lower relative to LSKSLAM
α4β1 or α9β1 LN18 cells
  off-rates for α9β1 compared to α4β1: significantly reduced off-rates
α4β1 or α9β1 LN18 cells; association and dissociation kinetics studies in vitro
  binding affinities relative to BOP: lower binding affinities
